Results from publication PMC8591201, “Anti-Tumor Activity of AZD4547 Against NTRK1 Fusion Positive Cancer Cells Through Inhibition of NTRKs” (Frontiers in Oncology, 2021).

Experiments:
TRKC = target: T1, TRKC (Homo sapiens, UniProt Q16288); assay: radiometric biochemical kinase assay
T1 construct: gene NTRK3

TRKB = target: T2, TRKB (Homo sapiens, UniProt Q16620); assay: radiometric biochemical kinase assay
T2 construct: gene NTRK2

TRKA = target: T3, TRKA (Homo sapiens, UniProt P04629); assay: radiometric biochemical kinase assay
T3 construct: gene NTRK1
T3 sequence (P04629 33-796): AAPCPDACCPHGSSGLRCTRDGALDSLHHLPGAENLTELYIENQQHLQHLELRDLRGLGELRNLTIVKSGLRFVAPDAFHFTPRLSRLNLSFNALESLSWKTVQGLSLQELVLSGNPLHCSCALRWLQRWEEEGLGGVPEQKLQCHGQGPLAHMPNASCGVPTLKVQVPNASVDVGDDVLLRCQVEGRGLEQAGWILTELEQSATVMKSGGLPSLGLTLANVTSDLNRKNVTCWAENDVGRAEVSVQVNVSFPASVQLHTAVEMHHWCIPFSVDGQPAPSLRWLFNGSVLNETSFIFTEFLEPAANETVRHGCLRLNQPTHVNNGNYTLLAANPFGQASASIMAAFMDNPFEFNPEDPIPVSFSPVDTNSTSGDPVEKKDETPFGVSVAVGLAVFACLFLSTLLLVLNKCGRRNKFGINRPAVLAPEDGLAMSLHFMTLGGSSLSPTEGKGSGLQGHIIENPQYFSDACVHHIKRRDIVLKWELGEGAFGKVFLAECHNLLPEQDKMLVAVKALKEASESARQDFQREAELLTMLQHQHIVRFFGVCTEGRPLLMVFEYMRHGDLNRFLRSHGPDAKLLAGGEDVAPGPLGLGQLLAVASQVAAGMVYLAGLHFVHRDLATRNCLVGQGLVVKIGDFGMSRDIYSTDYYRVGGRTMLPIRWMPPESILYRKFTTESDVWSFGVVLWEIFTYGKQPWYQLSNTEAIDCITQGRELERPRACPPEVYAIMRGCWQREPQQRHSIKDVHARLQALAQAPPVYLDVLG

A549 = assay: cells; parameters: Anti-proliferation, 10-point dose response, CellTiter-Glo luminescence (MTT stated for KM12(Luc)), GI50 fitted in Prism; settings: Homo sapiens, A549, 72 h, read-out: GI50 (µM) a
HeLa = assay: cells; parameters: Anti-proliferation, 10-point dose response, CellTiter-Glo luminescence (MTT stated for KM12(Luc)), GI50 fitted in Prism; settings: Homo sapiens, HeLa, 72 h, read-out: GI50 (µM) a
SW480 = assay: cells; parameters: Anti-proliferation, 10-point dose response, CellTiter-Glo luminescence (MTT stated for KM12(Luc)), GI50 fitted in Prism; settings: Homo sapiens, SW480, 72 h, read-out: GI50 (µM) a
U138 = assay: cells; parameters: Anti-proliferation, 10-point dose response, CellTiter-Glo luminescence (MTT stated for KM12(Luc)), GI50 fitted in Prism; settings: KM12-Luc, 72 h, read-out: GI50 (µM) a
in vitro = assay: in vitro; parameters: CellTiter-Glo viability of parental Ba/F3 cells, counter-screen; settings: mouse, parental ba/f3 cells; read-out: AZD4547 parental
Procedure: To obtain the GI50 value of a substance, cell viability was measured using MTT (G4000, Promega, USA) for KM12(Luc) cell and Cell titer glo (G7572, Promega, USA) for other cell lines. For adherent cells, cells were seeded at 5,000 cells/well in a 96-well plate and treated with a substance one day after cell seeding. For suspension cells, 10,000 cells/well were seeded and the substance was treated after 4 h stabilization of cells. The substance was treated at 10 points of 1:3 serial dilution (0–100 µmol/L) for 72 h. For MTT assay, 15 µL dye solution was added to each well and incubated 4 h at 37°C. 100 µL of solubilization solution was added and followed 1 hr incubation. Absorbance at 570 nm of each well was recorded using EnVision microplate reader (Perkin Elmer). For Cell titer glo assay, Cell titer glo reagent was treated in each well and measured the luminescence by EnVision microplate reader (Perkin Elmer). Viable cells in each well were normalized by using 0.5% DMSO-treated wells (100%). The inhibitor dose−response curve was fitted and GI50 values were calculated using Prism 7.0 software (GraphPad). All assays were performed in duplicate and the standard deviation (SD) was determined from two independent experiments. […] Cell viability after 72 h exposure to the indicated inhibitors, determined by using a cell titer glo assay in duplicate mode. […]

T1 sequence (Q16288 32-839): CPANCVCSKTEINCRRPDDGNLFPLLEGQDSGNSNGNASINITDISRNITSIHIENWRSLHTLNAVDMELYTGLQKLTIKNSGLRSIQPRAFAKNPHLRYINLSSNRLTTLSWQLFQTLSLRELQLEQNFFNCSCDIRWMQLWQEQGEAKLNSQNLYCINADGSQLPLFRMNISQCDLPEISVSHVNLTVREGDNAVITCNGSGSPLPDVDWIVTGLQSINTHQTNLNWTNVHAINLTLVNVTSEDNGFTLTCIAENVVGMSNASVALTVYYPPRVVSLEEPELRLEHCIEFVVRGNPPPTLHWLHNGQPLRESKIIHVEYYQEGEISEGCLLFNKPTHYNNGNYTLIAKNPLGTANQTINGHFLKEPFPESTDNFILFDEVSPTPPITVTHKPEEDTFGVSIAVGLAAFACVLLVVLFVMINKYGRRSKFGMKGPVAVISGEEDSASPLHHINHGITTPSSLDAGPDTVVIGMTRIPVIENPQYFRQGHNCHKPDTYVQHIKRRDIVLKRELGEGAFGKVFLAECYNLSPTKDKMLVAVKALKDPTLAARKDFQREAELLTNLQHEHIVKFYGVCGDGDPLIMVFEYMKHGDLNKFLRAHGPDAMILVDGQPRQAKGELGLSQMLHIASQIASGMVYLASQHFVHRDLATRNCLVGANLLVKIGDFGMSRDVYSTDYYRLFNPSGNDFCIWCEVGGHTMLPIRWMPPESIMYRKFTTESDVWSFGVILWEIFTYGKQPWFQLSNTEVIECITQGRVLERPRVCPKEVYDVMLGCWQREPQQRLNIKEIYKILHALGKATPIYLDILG
T2 sequence (Q16620 32-822): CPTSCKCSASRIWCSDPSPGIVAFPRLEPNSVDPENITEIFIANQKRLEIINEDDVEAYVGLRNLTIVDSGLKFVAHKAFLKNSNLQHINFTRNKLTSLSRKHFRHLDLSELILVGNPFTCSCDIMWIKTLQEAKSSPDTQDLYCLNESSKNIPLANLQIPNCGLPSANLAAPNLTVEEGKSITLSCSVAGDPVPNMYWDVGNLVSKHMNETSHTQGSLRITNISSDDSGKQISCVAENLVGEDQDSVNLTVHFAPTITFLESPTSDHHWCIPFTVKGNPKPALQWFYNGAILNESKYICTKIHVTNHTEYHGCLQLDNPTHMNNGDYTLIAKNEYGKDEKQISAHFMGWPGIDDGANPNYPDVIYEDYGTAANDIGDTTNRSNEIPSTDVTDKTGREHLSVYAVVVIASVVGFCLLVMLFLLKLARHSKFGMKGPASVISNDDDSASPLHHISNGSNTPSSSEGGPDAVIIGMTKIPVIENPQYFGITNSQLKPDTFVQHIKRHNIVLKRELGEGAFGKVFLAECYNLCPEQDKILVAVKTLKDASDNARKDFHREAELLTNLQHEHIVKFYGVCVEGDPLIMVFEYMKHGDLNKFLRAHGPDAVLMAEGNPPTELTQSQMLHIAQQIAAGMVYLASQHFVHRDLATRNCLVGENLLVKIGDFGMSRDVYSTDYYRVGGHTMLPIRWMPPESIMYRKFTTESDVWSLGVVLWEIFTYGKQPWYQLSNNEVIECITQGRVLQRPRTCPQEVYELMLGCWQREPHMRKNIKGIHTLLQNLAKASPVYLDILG

Compound `COc1cc(CCc2cc(NC(=O)c3ccc(N4C[C@@H](C)N[C@@H](C)C4)cc3)n[nH]2)cc(OC)c1` [AZD4547] has an IC50 (TRKC) of 0.001 µM, an IC50 (TRKB) of 0.0076 µM and an IC50 (TRKA) of 0.0088 µM. For the same compound, the GI50 (A549) was 11.6 µM, the GI50 (HeLa) was 4.38 µM and the GI50 (SW480) was 14.1 µM. It also gave a GI50 (U138) of 8.48 µM and a CC50 at 72 h (in vitro) greater than 2 µM.
